Reference: patent US7267946B2, “Mitochondrial DNA damage as a predictor of coronary atherosclerotic heart disease” (Research Development Foundation, priority 1999, dated 2007)

What was measured:
[1] = test system: 16S rRNA, ND2 and Cyt b transcripts; experiment: Northern transcript analysis, HASMC; format: cell-based, human; details: 0.5 mM, 60 min
Experimental: (§1) Human umbilical endothelial vein cells (HUVEC) and human aortic smooth muscle cells (HASMC) were maintained a t 37° C. and 5% CO2/95% air in Dulbecco's Modified Eagles Media (HASMC; Cell Gro) or M199 (HUVEC:Cell Gro) supplemented with 10% (HASMC) or 20% (HUVEC) heat inactivated fetal calf serum (Gibco/BRL), HEPES buffer (10 mM), glutamine, penicillin, and streptomycin. Flasks were routinely split every 3-4 days and disassociated for experiments using trypsin-EDTA (Gibco/BRL). Cells were treated with the various reactive oxygen species (controls mock treated with serum-free media) at 70-80% confluence, between passages 5-7. […] SIN-1 (3-morpholinosydnonimine, hydrochloride, Molecular Probes) was used to generate higher, equimolar levels of nitric oxide and O2^-. Monolayer cultures in 60 mm plates (70%-80% confluent) were exposed to specific reactive oxygen species concentrations for dose response, and time-course experiments in serum-free, phenol red free minimum essential media (MEM) at 37° C. Control monolayers were mock-treated with serum-free and phenol red-free MEM alone. […] Autoradiographs were scanned densitometrically (Molecular Dynamics Densitometer SI) and quantitated using IMAGEQUANT (Molecular Dynamics). In regard to the quantitation of mitochondrial transcript levels, any technique used to quantify mtRNA transcript levels would be applicable. […]

[2] = test system: complex II, succinate dehydrogenase; experiment: MTT reduction (mitochondrial respiration), HUVEC; format: cell-based, human; details: 1 hour
Experimental: (§2) Reduction of MTT at complex II was used to assess mitochondrial respiration (38-42). Cells were seeded in 96 well plates at a density of 8,000 cells/well and incubated at 37° C. […] Absorbance values were converted to MTT reduction using a standard curve generated with known numbers of viable cells. MTT reduction for treated samples was then normalized to non-treated control samples and is reported as a fraction of control. Total ATP levels were determined using an ATP determination kit (Molecular Probes, A-6608) and a MicroLumat Plus LB (EG&G Berthold) micro-injector luminometer. Briefly, this assay is based upon luciferin-luciferase bioluminescence (˜560 nm) in the presence of ATP. This assay is extremely sensitive; most luminometers can detect as little as 0.1 picomole of pre-existing ATP, or ATP as it is being formed in kinetic systems. Statistical analysis was performed using the independent Student's t test.

[3] = test system: mitochondrial protein synthesis; experiment: Mitochondrial protein synthesis (35S-methionine incorporation), HASMC; format: cell-based, human
Experimental: (§3) Human umbilical endothelial vein cells (HUVEC) and human aortic smooth muscle cells (HASMC) were maintained a t 37° C. and 5% CO2/95% air in Dulbecco's Modified Eagles Media (HASMC; Cell Gro) or M199 (HUVEC:Cell Gro) supplemented with 10% (HASMC) or 20% (HUVEC) heat inactivated fetal calf serum (Gibco/BRL), HEPES buffer (10 mM), glutamine, penicillin, and streptomycin. Flasks were routinely split every 3-4 days and disassociated for experiments using trypsin-EDTA (Gibco/BRL). Cells were treated with the various reactive oxygen species (controls mock treated with serum-free media) at 70-80% confluence, between passages 5-7. […] SIN-1 (3-morpholinosydnonimine, hydrochloride, Molecular Probes) was used to generate higher, equimolar levels of nitric oxide and O2^−. Monolayer cultures in 60 mm plates (70%-80% confluent) were exposed to specific reactive oxygen species concentrations for dose response, and time-course experiments in serum-free, phenol red free minimum essential media (MEM) at 37° C. Control monolayers were mock-treated with serum-free and phenol red-free MEM alone. After treatment, cells were washed once with PBS and harvested immediately. Methods for mitochondrial protein synthesis analyses have been described (37). […] Cells were trypsinized, and washed with PBS. […] Gels were dried onto Whatman filter paper, and exposed to Kodak XAR film at −80° C. The percent labeling of the translation products was determined by densitometry (Molecular Dynamics Densitometer SI) of all bands for untreated and treated samples. The sum of labeling of the bands for each sample was used to calculate the relative levels of incorporation. In regard to the quantitation of mitochondrial protein levels, any technique used to quantify mitochondrial protein synthesis levels would be applicable. Statistical analysis was performed using the independent Student's t test.

[4] = test system: complex II, succinate dehydrogenase; experiment: MTT reduction (mitochondrial respiration), HASMC; format: cell-based, human; details: 1 hour
Experimental: as §2

[5] = test system: mitochondrial protein synthesis; experiment: Mitochondrial protein synthesis (35S-methionine incorporation), HUVEC; format: cell-based, human
Experimental: as §3

[6] = test system: 16S rRNA, ND2 and Cyt b transcripts; experiment: Northern transcript analysis, HUVEC; format: cell-based, human; details: 0.5 mM, 60 min
Experimental: as §1

[7] = test system: mitochondrial DNA encoded OXPHOS gene transcripts; β-actin; experiment: Northern transcript analysis, HUVEC and HASMC pooled statements; format: cell-based, human; details: peroxynitrite treatments
Experimental: as §1

[8] = test system: HASMC; experiment: Total ATP determination, HASMC; format: cell-based, human; details: 1 hour
Experimental: as §2

[9] = test system: mitochondrial protein synthesis; experiment: Mitochondrial protein synthesis, HUVEC and HASMC pooled statements; format: cell-based; details: Homo sapiens; 0.1 mM, cell line not stated
Experimental: Human umbilical endothelial vein cells (HUVEC) and human aortic smooth muscle cells (HASMC) were maintained a t 37° C. and 5% CO2/95% air in Dulbecco's Modified Eagles Media (HASMC; Cell Gro) or M199 (HUVEC:Cell Gro) supplemented with 10% (HASMC) or 20% (HUVEC) heat inactivated fetal calf serum (Gibco/BRL), HEPES buffer (10 mM), glutamine, penicillin, and streptomycin. Flasks were routinely split every 3-4 days and disassociated for experiments using trypsin-EDTA (Gibco/BRL). Cells were treated with the various reactive oxygen species (controls mock treated with serum-free media) at 70-80% confluence, between passages 5-7. […] SIN-1 (3-morpholinosydnonimine, hydrochloride, Molecular Probes) was used to generate higher, equimolar levels of nitric oxide and O2^−. Monolayer cultures in 60 mm plates (70%-80% confluent) were exposed to specific reactive oxygen species concentrations for dose response, and time-course experiments in serum-free, phenol red free minimum essential media (MEM) at 37° C. […] The percent labeling of the translation products was determined by densitometry (Molecular Dynamics Densitometer SI) of all bands for untreated and treated samples. […] In regard to the quantitation of mitochondrial protein levels, any technique used to quantify mitochondrial protein synthesis levels would be applicable. […]

[10] = molecular target: T1, recombinant human MnSOD (Homo sapiens, UniProt P04179); details: cited from earlier work
T1 sequence (P04179 25-222): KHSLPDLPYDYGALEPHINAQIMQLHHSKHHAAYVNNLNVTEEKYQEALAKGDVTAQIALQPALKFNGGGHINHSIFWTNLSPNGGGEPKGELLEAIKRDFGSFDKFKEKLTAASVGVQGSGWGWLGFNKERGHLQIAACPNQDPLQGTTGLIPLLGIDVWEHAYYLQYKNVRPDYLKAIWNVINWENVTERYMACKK

[11] = test system: HUVEC; experiment: Total ATP determination, HUVEC; format: cell-based, human; details: 1 hour
Experimental: as §2

[12] = test system: mitochondrial DNA; experiment: QPCR DNA damage assay, mtDNA, HUVEC; format: cell-based, human
Experimental: (§4) Human umbilical endothelial vein cells (HUVEC) and human aortic smooth muscle cells (HASMC) were maintained a t 37° C. and 5% CO2/95% air in Dulbecco's Modified Eagles Media (HASMC; Cell Gro) or M199 (HUVEC:Cell Gro) supplemented with 10% (HASMC) or 20% (HUVEC) heat inactivated fetal calf serum (Gibco/BRL), HEPES buffer (10 mM), glutamine, penicillin, and streptomycin. Flasks were routinely split every 3-4 days and disassociated for experiments using trypsin-EDTA (Gibco/BRL). Cells were treated with the various reactive oxygen species (controls mock treated with serum-free media) at 70-80% confluence, between passages 5-7.
Xanthine oxidase/lumazine and spermine NONOate were used as low dose O2^− and nitric oxide donors, respectively. SIN-1 (3-morpholinosydnonimine, hydrochloride, Molecular Probes) was used to generate higher, equimolar levels of nitric oxide and O2^−. Monolayer cultures in 60 mm plates (70%-80% confluent) were exposed to specific reactive oxygen species concentrations for dose response, and time-course experiments in serum-free, phenol red free minimum essential media (MEM) at 37° C. Control monolayers were mock-treated with serum-free and phenol red-free MEM alone. After treatment, cells were washed once with PBS and harvested immediately.
(§5) The QPCR assay measures the average degree of DNA damage per strand for the two template strands in the genomic segment of interest. […] Damage is assessed in the mitochondrial genome by amplifying a 16.2 kb product from the mitochondrial DNA template, and the nuclear genome by a 17.7 kb product from the β-globin gene cluster. […] Because differences in QPCR amplifications may at times be related to template copy number differences or simply due to the DNA quality unrelated to in vivo or in vitro mediated damage, a quantitative amplification of a small region is performed as a quality control (32). […]

[13] = test system: mitochondrial DNA; experiment: QPCR DNA damage assay, mtDNA, HASMC; format: cell-based, human; details: 0.2 mM, time course 0-60 minutes
Experimental: as §4
(§6) Xanthine oxidase/lumazine and spermine NONOate were used as low dose O2^− and nitric oxide donors, respectively. […]
as §5

[14] = test system: nDNA (β-globin gene cluster); experiment: QPCR DNA damage assay, nDNA, HUVEC; format: cell-based, human; details: 0.2 mM, time course 0-60 minutes
Experimental: as §4, §6, §5

[15] = Homo sapiens, 0.5 mM, read-out: protein labeling, % of control

For `O=NOO` [peroxynitrite], the “decrease in ND2 and Cyt b transcript levels” value [1] was 55%, the “reduction of 16S rRNA levels” value [1] was 14% and the “complex II reduction of MTT (mitochondrial respiration), in words” value (“complex II reduction of MTT” below) ([2]; 0.1 mM) was “did not result in a significant decrease”. For the same molecule, the “complex II reduction of MTT” value ([2]; 0.5 mM, P=0.02) was “significant decline”, the “35S-Methionine Incorporation Compared to Control” value [3] was 30% and the “35S-Methionine Incorporation Compared to Control” value ([3]; 0.1 mM) was 88%. For the same molecule, the “decrease in 35S-methionine incorporation” value ([3]; 0.1 mM) was 12%, the activity at 500 µM [3, 15] was 30% and the “complex II reduction of MTT” value ([4]; 0.1 mM) was “did not result in a significant decrease”. For the same molecule, the “complex II reduction of MTT” value ([4]; 0.5 mM, P=0.008) was “significant decline”, the “35S-Methionine Incorporation Compared to Control” value [5] was 45% and the “loss of mitochondrial protein synthesis compared to untreated cells” value ([5]; 0.5 mM) was 55%. For the same molecule, the activity at 500 µM [5, 15] was 45%, the “decrease of 16S rRNA levels” value [6] was 26% and the “transcript levels of the nuclear β-actin gene” value [7] was “unaffected”. The “total ATP (in words)” value ([8]; 0.1 mM) was “did not result in a significant reduction”, the “total ATP (in words)” value ([8]; 0.5 mM, P=0.04) was “significant decreases” and the inhibition at 100 µM [9] was 10%. The “inhibition of MnSOD enzymatic activity” value [10] was “complete inhibition”, the “total ATP (in words)” value ([11]; 0.1 mM) was “did not result in a significant reduction” and the “total ATP (in words)” value ([11]; 0.5 mM, P=0.02) was “significant decreases”.
With catalase the “effect of pretreatment on O2^- induced mitochondrial DNA damage” value ([12]; HUVEC, O2^- 2 mM/ml/minute) was “prevented”.
With `NCCCNCCCCN(CCCN)/[N+]([O-])=N/O` [spermine NONOate] the “DNA damage (in words)” value ([12]; sustained nitric oxide generation 0.5 mM/ml/min, cell line not named in the clause (HUVEC context)) was “did no t cause DNA damage”.
For `OO` [H2O2, hydrogen peroxide], the “35S-Methionine Incorporation Compared to Control” value ([3]; 0.2 mM) was 67%, the “35S-Methionine Incorporation Compared to Control” value ([5]; 0.2 mM) was 77% and the “time at which significant mitochondrial DNA damage occurred” value ([12]; HUVEC, 0.2 mM, time course 0-60 minutes) was at most 10 min. The “time at which significant mitochondrial DNA damage occurred” value [13] was at most 15 min and the “treatment time required before significant nDNA (β-globin) damage” value [14] was 60 min.
